Measured values reported in patent US12139492B2 (Endotarget Inc., priority 2021, dated 2024).
Where two headings read alike, the source gives them in different places.

Legend:
BTK = BTK (Homo sapiens, UniProt Q06187); experiment: Degradation of BTK protein in Namalwa cells (Western blot; DC50, Dmax); details: for DC50: cell line not given
Mino cells = experiment: Antiproliferative effect, MTS cell viability assay, Mino cells; type: cell-based; details: Mino mantle cell lymphoma cells, read-out: IC50 (anti-proliferation) Mino cells
In short: (§1)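 Mino and JeKo-1 mantle B-cell lymphoma lines were exposed to compound at 0, 0.001, 0.01, 0.1, 1 and 10 μM for 72 h. Viability was read by MTS reduction to formazan, measured as absorbance at 490 nm.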

JeKo-1 cells = experiment: Antiproliferative effect, MTS cell viability assay, JeKo-1 cells; type: cell-based; details: JeKo-1 mantle cell lymphoma cells, read-out: IC50 (anti-proliferation) JeKO-1 cells
In short: as §1

[1] = read-out: DC50 (BTK degradation), concentration giving 50% reduction of BTK expression level
[2] = read-out: Dmax (BTK degradation)

BTK, sequence (Q06187 whole entry): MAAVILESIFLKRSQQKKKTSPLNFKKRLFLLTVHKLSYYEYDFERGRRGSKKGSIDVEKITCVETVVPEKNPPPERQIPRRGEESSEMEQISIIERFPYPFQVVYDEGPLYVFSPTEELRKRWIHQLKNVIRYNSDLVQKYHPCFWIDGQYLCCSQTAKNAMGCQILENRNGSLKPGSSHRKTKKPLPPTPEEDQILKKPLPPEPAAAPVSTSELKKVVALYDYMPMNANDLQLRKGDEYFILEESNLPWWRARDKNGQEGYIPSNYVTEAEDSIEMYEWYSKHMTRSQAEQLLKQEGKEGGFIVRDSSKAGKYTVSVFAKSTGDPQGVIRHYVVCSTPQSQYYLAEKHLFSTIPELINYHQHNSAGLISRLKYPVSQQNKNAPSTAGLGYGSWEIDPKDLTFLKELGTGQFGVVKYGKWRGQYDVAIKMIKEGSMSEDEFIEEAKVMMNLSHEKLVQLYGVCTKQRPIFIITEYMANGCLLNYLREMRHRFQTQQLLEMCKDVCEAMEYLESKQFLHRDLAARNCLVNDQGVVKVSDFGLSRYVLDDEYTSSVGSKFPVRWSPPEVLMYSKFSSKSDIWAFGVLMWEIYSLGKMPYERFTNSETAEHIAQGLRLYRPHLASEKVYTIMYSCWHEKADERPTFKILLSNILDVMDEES

Compound: Nc1ncnc2c1c(-c1ccc(Oc3ccccc3)cc1)nn2C1CCN(C2CCN(CC3CCN(c4ccc5c(c4)CN(C4CCC(=O)NC4=O)C5=O)CC3)C2)CC1 (stereo not shown) [Compound 450, 3-(5-(4-((3-(4-(4-amino-3-(4-phenoxyphenyl)-1H-pyrazolo[3,4-d]pyrimidin-1-yl)piperidin-1-yl)pyrrolidin-1-yl)methyl)piperidin-1-yl)-1-oxoisoindolin-2-yl)piperidine-2,6-dione]
- DC50 (BTK; [1]): 0.01 to 0.05 µM
- Dmax (BTK; [2]): > 75%
- IC50 (Mino cells; Homo sapiens, MINO): 1 to 10 µM
- IC50 (JeKo-1 cells; Homo sapiens): 1 to 10 µM

Compound: Nc1ncnc2c1c(-c1ccc(Oc3ccccc3)cc1)nn2C1CCN(CCN2CCC(CN3CCN(c4ccc(NC5CCC(=O)NC5=O)cc4)CC3)C2)CC1 (stereo not shown) [Compound 563, 3-((4-(4-((1-(2-(4-(4-amino-3-(4-phenoxyphenyl)-1H-pyrazolo[3,4-d]pyrimidin-1-yl)piperidin-1-yl)ethyl)pyrrolidin-3-yl)methyl)piperazin-1-yl)phenyl)amino)piperidine-2,6-dione]
- DC50 (BTK; [1]): 0.01 to 0.05 µM
- Dmax (BTK; [2]): > 90%
- IC50 (Mino cells; Homo sapiens, MINO): 1 to 10 µM
- IC50 (JeKo-1 cells; Homo sapiens): 1 to 10 µM

Compound: NC1=NC=NC2C1C(c1ccc(Oc3ccccc3)cc1)=NN2C1CCCN(C2CN(C(=O)N3CC(C4CN(c5ccc6c(c5)C(=O)N(C5CCC(=O)NC5=O)C6=O)C4)C3)C2)C1 (stereo not shown) [Compound 501]
- DC50 (BTK; [1]): 0.01 to 0.05 µM
- Dmax (BTK; [2]): > 90%
- IC50 (Mino cells; Homo sapiens, MINO): 1 to 10 µM
- IC50 (JeKo-1 cells; Homo sapiens): < 1 µM

Compound: Nc1ncnc2c1c(-c1ccc(Oc3ccccc3)cc1)nn2C1CCN(CCN2CCN(CCCSc3ccc4c(c3)C(=O)N(C3CCC(=O)NC3=O)C4=O)CC2)CC1 (stereo not shown) [Compound 467, 5-((3-(4-(2-(4-(4-amino-3-(4-phenoxyphenyl)-1H-pyrazolo[3,4-d]pyrimidin-1-yl)piperidin-1-yl)ethyl)piperazin-1-yl)propyl)thio)-2-(2,6-dioxopiperidin-3-yl)isoindoline-1,3-dione]
- DC50 (BTK; [1]): 0.01 to 0.05 µM
- Dmax (BTK; [2]): > 90%
- IC50 (Mino cells; Homo sapiens, MINO): 1 to 10 µM
- IC50 (JeKo-1 cells; Homo sapiens): 1 to 10 µM

Compound: Nc1ncnc2c1c(-c1ccc(Oc3ccccc3)cc1)nn2C1CCN(C(=O)N2CC(N3CCN(c4ccc5c(c4)C(=O)N([C@@H]4CCC(=O)NC4=O)C5=O)CC3)C2)CC1 [Compound 485, (R)-5-(4-(1-(4-(4-amino-3-(4-phenoxyphenyl)-1H-pyrazolo[3,4-d]pyrimidin-1-yl)piperidine-1-carbonyl)azetidin-3-yl)piperazin-1-yl)-2-(2,6-dioxopiperidin-3-yl)isoindoline-1,3-dione]
- DC50 (BTK; [1]): < 0.01 µM
- Dmax (BTK; [2]): > 90%
- IC50 (Mino cells; Homo sapiens, MINO): < 1 µM
- IC50 (JeKo-1 cells; Homo sapiens): < 1 µM

Compound: NC(=O)c1c(-c2ccc(Oc3ccccc3)cc2)nn2c1NCCC2C1CCN(CC2CCN(C(=O)N3CCC(CN4CCC(c5ccc6c(c5)C(=O)N(C5CCC(=O)NC5=O)C6=O)CC4)CC3)CC2)CC1 (stereo not shown) [Compound 375, 7-(1-((1-(4-((4-(2-(2,6-dioxopiperidin-3-yl)-1,3-dioxoisoindolin-5-yl)piperidin-1-yl)methyl)piperidine-1-carbonyl)piperidin-4-yl)methyl)piperidin-4-yl)-2-(4-phenoxyphenyl)-4,5,6,7-tetrahydropyrazolo[1,5-a]pyrimidine-3-carboxamide]
- Dmax (BTK): > 75%
- DC50 (BTK; BTK degradation): 0.01 to 0.05 µM
- IC50 (Mino cells; Homo sapiens, MINO): 1 to 10 µM
- IC50 (JeKo-1 cells; Homo sapiens): 1 to 10 µM

Compound: Nc1ncnc2c1c(-c1ccc(Oc3ccccc3)cc1)nn2C1CCN(C2CCN(CC3CCN(c4ccc5c(c4)C(=O)N(C4CCC(=O)NC4=O)C5=O)CC3)CC2)CC1 (stereo in doubt) [Compound 213b, (S)-5-(4-((4-(4-amino-3-(4-phenoxyphenyl)-1H-pyrazolo[3,4-d]pyrimidin-1-yl)-[1,4′-bipiperidin]-1′-yl)methyl)piperidin-1-yl)-2-(2,6-dioxopiperidin-3-yl)isoindoline-1,3-dione]
- DC50 (BTK; BTK degradation): < 0.01 µM
- IC50 (Mino cells): < 1 µM
- IC50 (JeKo-1 cells): < 1 µM

Compound: NC(=O)c1c(-c2ccc(Oc3ccccc3)cc2)nn2c1NCCC2C1CCN(CC2CCN(C(=O)N3CCN(c4ccc5c(c4)C(=O)N(C4CCC(=O)NC4=O)C5=O)CC3)CC2)CC1 (stereo not shown) [Compound 357, 7-(1-((1-(4-(2-(2,6-dioxopiperidin-3-yl)-1,3-dioxoisoindolin-5-yl)piperazine-1-carbonyl)piperidin-4-yl)methyl)piperidin-4-yl)-2-(4-phenoxyphenyl)-4,5,6,7-tetrahydropyrazolo[1,5-a]pyrimidine-3-carboxamide]
- Dmax (BTK): > 50%
- DC50 (BTK; BTK degradation): > 0.05 µM
- IC50 (Mino cells; Homo sapiens, MINO): > 10 µM
- IC50 (JeKo-1 cells; Homo sapiens): > 10 µM

Compound: Nc1ncnc2c1c(-c1ccc(Oc3ccccc3)cc1)nn2C1CCN(C2CCN(C(=O)N3CCC(c4ccc5c(c4)CN(C4CCC(=O)NC4=O)C5=O)CC3)CC2)CC1 (stereo not shown) [Compound 228, 3-(5-(1-(4-(4-amino-3-(4-phenoxyphenyl)-1H-pyrazolo[3,4-d]pyrimidin-1-yl)-[1,4′-bipiperidine]-1′-carbonyl)piperidin-4-yl)-1-oxoisoindolin-2-yl)piperidine-2,6-dione]
- Dmax (BTK): > 50%
- DC50 (BTK; BTK degradation): > 0.05 µM
- IC50 (Mino cells; Homo sapiens, MINO): > 10 µM
- IC50 (JeKo-1 cells; Homo sapiens): > 10 µM

Compound: Nc1ncnc2c1c(-c1ccc(Oc3ccccc3)cc1)nn2C1CCN(CCCN2CCC(CC3CCN(c4ccc(NC5CCC(=O)NC5=O)cc4)CC3)CC2)CC1 (stereo not shown) [Compound 561, 3-((4-(4-((1-(3-(4-(4-amino-3-(4-phenoxyphenyl)-1H-pyrazolo[3,4-d]pyrimidin-1-yl)piperidin-1-yl)propyl)piperidin-4-yl)methyl)piperidin-1-yl)phenyl)amino)piperidine-2,6-dione]
- DC50 (BTK; [1]): 0.01 to 0.05 µM
- Dmax (BTK; [2]): > 90%
- IC50 (Mino cells; Homo sapiens, MINO): < 1 µM
- IC50 (JeKo-1 cells; Homo sapiens): < 1 µM

Compound: Nc1ncnc2c1c(-c1ccc(Oc3ccccc3)cc1)nn2C1CCN(C2CCN(C(=O)N3CCC(CCN4CCC(c5ccc6c(c5)CN(C5CCC(=O)NC5=O)C6=O)CC4)CC3)CC2)CC1 (stereo not shown) [Compound 254, 3-(5-(1-(2-(1-(4-(4-amino-3-(4-phenoxyphenyl)-1H-pyrazolo[3,4-d]pyrimidin-1-yl)-[1,4′-bipiperidine]-1′-carbonyl)piperidin-4-yl)ethyl)piperidin-4-yl)-1-oxoisoindolin-2-yl)piperidine-2,6-dione]
- Dmax (BTK): > 90%
- DC50 (BTK; BTK degradation): < 0.01 µM
- IC50 (Mino cells; Homo sapiens, MINO): 1 to 10 µM
- IC50 (JeKo-1 cells; Homo sapiens): 1 to 10 µM

Compound: NC(=O)c1c(-c2ccc(Oc3ccccc3)cc2)nn2c1NCCC2C1CCN(C(=O)N2CCC(CN3CCN(c4ccc5c(c4)CN(C4CCC(=O)NC4=O)C5=O)CC3)CC2)CC1 (stereo not shown) [Compound 276, 7-(1-(4-((4-(2-(2,6-dioxopiperidin-3-yl)-1-oxoisoindolin-5-yl)piperazin-1-yl)methyl)piperidine-1-carbonyl)piperidin-4-yl)-2-(4-phenoxyphenyl)-4,5,6,7-tetrahydropyrazolo[1,5-a]pyrimidine-3-carboxamide]
- Dmax (BTK): > 90%
- DC50 (BTK; BTK degradation): < 0.01 µM
- IC50 (Mino cells; Homo sapiens, MINO): < 1 µM
- IC50 (JeKo-1 cells; Homo sapiens): < 1 µM

Compound: Nc1ncnc2c1c(-c1ccc(Oc3ccccc3)cc1)nn2C1CCN(CC2CCN(CC3CCN(c4ccc5c(c4)CN(C4CCC(=O)NC4=O)C5=O)C3)C2)CC1 (stereo not shown) [Compound 448, 3-(5-(3-((3-((4-(4-amino-3-(4-phenoxyphenyl)-1H-pyrazolo[3,4-d]pyrimidin-1-yl)piperidin-1-yl)methyl)pyrrolidin-1-yl)methyl)pyrrolidin-1-yl)-1-oxoisoindolin-2-yl)piperidine-2,6-dione]
- DC50 (BTK; [1]): 0.01 to 0.05 µM
- Dmax (BTK; [2]): > 90%
- IC50 (Mino cells; Homo sapiens, MINO): 1 to 10 µM
- IC50 (JeKo-1 cells; Homo sapiens): 1 to 10 µM

Compound: Nc1ncnc2c1c(-c1ccc(Oc3ccccc3)cc1)nn2C1CCN(C2CCN(C(=O)N3CCN(CCN4CCC(c5ccc6c(c5)CN(C5CCC(=O)NC5=O)C6=O)CC4)CC3)CC2)CC1 (stereo not shown) [Compound 250]
- Dmax (BTK): > 90%
- DC50 (BTK; BTK degradation): 0.01 to 0.05 µM
- IC50 (Mino cells; Homo sapiens, MINO): 1 to 10 µM
- IC50 (JeKo-1 cells; Homo sapiens): 1 to 10 µM

Compound: NC(=O)c1c(-c2ccc(Oc3ccccc3)cc2)nn2c1NCC[C@H]2C1CCN(CC2CCN(C(=O)N3CCC(C4CCN(c5ccc6c(c5)C(=O)N(C5CCC(=O)NC5=O)C6=O)CC4)CC3)CC2)CC1 (stereo partly drawn) [Compound 405, (7S)-7-(1-((1-(1′-(2-(2,6-dioxopiperidin-3-yl)-1,3-dioxoisoindolin-5-yl)-[4,4′-bipiperidine]-1-carbonyl)piperidin-4-yl)methyl)piperidin-4-yl)-2-(4-phenoxyphenyl)-4,5,6,7-tetrahydropyrazolo[1,5-a]pyrimidine-3-carboxamide]
- DC50 (BTK; [1]): 0.01 to 0.05 µM
- Dmax (BTK; [2]): > 90%
- IC50 (Mino cells; Homo sapiens, MINO): < 1 µM
- IC50 (JeKo-1 cells; Homo sapiens): 1 to 10 µM

Compound: Nc1ncnc2c1c(-c1ccc(Oc3ccccc3)cc1)nn2C1CCN(C2CCN(C(=O)N3CCN(C4CCN(c5ccc6c(c5)C(=O)N(C5CCC(=O)NC5=O)C6=O)CC4)CC3)CC2)CC1 (stereo not shown) [Compound 233, 5-(4-(4-(4-(4-amino-3-(4-phenoxyphenyl)-1H-pyrazolo[3,4-d]pyrimidin-1-yl)-[1,4′-bipiperidine]-1′-carbonyl)piperazin-1-yl)piperidin-1-yl)-2-(2,6-dioxopiperidin-3-yl)isoindoline-1,3-dione]
- Dmax (BTK): > 75%
- DC50 (BTK; BTK degradation): > 0.05 µM
- IC50 (Mino cells; Homo sapiens, MINO): 1 to 10 µM
- IC50 (JeKo-1 cells; Homo sapiens): 1 to 10 µM

Compound: NC(=O)c1c(-c2ccc(Oc3ccccc3)cc2)nn2c1NCC[C@H]2C1CCN(CCOCCOCCN2CCN(c3ccc4c(c3)C(=O)N(C3CCC(=O)NC3=O)C4=O)CC2)CC1 (stereo partly drawn) [Compound 271, (7S)-7-(1-(2-(2-(2-(4-(2-(2,6-dioxopiperidin-3-yl)-1,3-dioxoisoindolin-5-yl)piperazin-1-yl)ethoxy)ethoxy)ethyl)piperidin-4-yl)-2-(4-phenoxyphenyl)-4,5,6,7-tetrahydropyrazolo[1,5-a]pyrimidine-3-carboxamide]
- Dmax (BTK): > 90%
- DC50 (BTK; BTK degradation): 0.01 to 0.05 µM
- IC50 (Mino cells; Homo sapiens, MINO): 1 to 10 µM
- IC50 (JeKo-1 cells; Homo sapiens): > 10 µM
